Assay results as given in US10844032B2, “Substituted benzofuran, benzothiophene and indole Mcl-1 inhibitors” (Vanderbilt University, priority 2012, dated 2020).

What follows are compounds tested against recombinant Mcl-1 (residues 172-327) (Homo sapiens (Human), UniProt Q07820) (assay: Bak peptide fluorescence polarization anisotropy competition assay, Mcl-1). Conditions: Table 2, Ki range; FITC-Bak peptide 10 nM, Mcl-1 14 nM; read-out: Ki for inhibition of Mcl-1.
Type: binding

Chain of recombinant Mcl-1 (residues 172-327) (Q07820 172-327): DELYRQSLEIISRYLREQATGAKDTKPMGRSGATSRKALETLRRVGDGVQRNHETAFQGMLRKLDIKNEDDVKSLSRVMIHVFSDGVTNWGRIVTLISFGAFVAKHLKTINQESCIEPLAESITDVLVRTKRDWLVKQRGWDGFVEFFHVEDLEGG

Ki [nM] | SMILES
≤ 100 | Cc1cc(OCCCc2c(C(=O)NS(=O)(=O)c3ccccc3)[nH]c3c(-c4ccnn4C(C)C)cccc23)cc(C)c1Cl [Example 304, 3-(3-(4-chloro-3,5-dimethylphenoxy)propyl)-7-(1-isopropyl-1H-pyrazol-5-yl)-N-(phenylsulfonyl)-1H-indole-2-carboxamide]
≤ 100 | Cc1cc(OCCCc2c(C(=O)NS(=O)(=O)c3ccccc3)[nH]c3c(-c4ncccc4C(F)(F)F)cccc23)cc(C)c1Cl [Example 102, 3-(3-(4-chloro-3,5-dimethylphenoxy)propyl)-N-(phenylsulfonyl)-7-(3-(trifluoromethyl)pyridin-2-yl)-1H-indole-2-carboxamide]
≤ 100 | Cc1ccsc1-c1cccc2c(CCCOc3cc(C)c(Cl)c(C)c3)c(C(=O)NS(=O)(=O)c3ccccc3)[nH]c12 [Example 99, 3-(3-(4-chloro-3,5-dimethylphenoxy)propyl)-7-(3-methylthiophen-2-yl)-N-(phenylsulfonyl)-1H-indole-2-carboxamide]

Same assay, conditions: read-out: Ki for inhibition of Mcl-1

Ki [nM] | SMILES
301 to 500 | Cc1cc(OCCCc2c(C(=O)NS(=O)(=O)c3ccc(OCc4ccccc4)cc3)[nH]c3cc(Cl)ccc23)cc(C)c1Cl [Example 224, N-((4-(benzyloxy)phenyl)sulfonyl)-6-chloro-3-(3-(4-chloro-3,5-dimethylphenoxy)propyl)-1H-indole-2-carboxamide]
301 to 500 | Cc1cc(OCCCc2c(C(=O)NS(=O)(=O)c3ccnc(Cl)c3)[nH]c3ccccc23)cc(C)c1Cl [Example 135, 3-(3-(4-chloro-3,5-dimethylphenoxy)propyl)-N-((2-chloropyridin-4-yl)sulfonyl)-1H-indole-2-carboxamide]
301 to 500 | Cc1cc(OCCCc2c(C(=O)NS(C)(=O)=O)[nH]c3ccccc23)ccc1Cl [Example 20, 3-(3-(4-chloro-3-methylphenoxy)propyl)-N-(methylsulfonyl)-1H-indole-2-carboxamide]
301 to 500 | Cc1cc(OCCCc2c(C(=O)NS(=O)(=O)CCNC(=O)c3cccc(-c4ccccc4)c3)[nH]c3ccccc23)cc(C)c1Cl [Example 165, N-((2-([1,1′-biphenyl]-3-ylcarboxamido)ethyl)sulfonyl)-3-(3-(4-chloro-3,5-dimethylphenoxy)propyl)-1H-indole-2-carboxamide]
301 to 500 | Cc1cc(OCCCc2c(C(=O)NS(C)(=O)=O)[nH]c3cc(Cl)ccc23)ccc1Cl [Example 53, 6-chloro-3-(3-(4-chloro-3-methylphenoxy)propyl)-N-(methylsulfonyl)-1H-indole-2-carboxamide]
1000 to 9990 | CS(=O)(=O)NC(=O)c1[nH]c2ccccc2c1CCCOc1cccc(C(F)(F)F)c1 [Example 32, N-(methylsulfonyl)-3-(3-(3-(trifluoromethyl)phenoxy)propyl)-1H-indole-2-carboxamide]
101 to 299 | Cc1cc(OCCCc2c(C(=O)NS(=O)(=O)c3ccc(OCc4ccccc4)cc3)[nH]c3ccccc23)cc(C)c1Cl [Example 136, N-((4-(benzyloxy)phenyl)sulfonyl)-3-(3-(4-chloro-3,5-dimethylphenoxy)propyl)-1H-indole-2-carboxamide]
101 to 299 | Cc1cc(OCCCc2c(C(=O)NS(=O)(=O)CCNC(=O)CCc3ccccc3)[nH]c3ccccc23)cc(C)c1Cl [Example 164, 3-(3-(4-chloro-3,5-dimethylphenoxy)propyl)-N-((2-(3-phenylpropanamido)ethyl)sulfonyl)-1H-indole-2-carboxamide]
1000 to 9990 | Cc1cc(OCCCc2c(C(=O)NS(=O)(=O)c3ccc(OCc4ccccc4)cc3)n(Cc3cccnc3)c3cc(Cl)ccc23)cc(C)c1Cl [Example 274, N-((4-(benzyloxy)phenyl)sulfonyl)-6-chloro-3-(3-(4-chloro-3,5-dimethylphenoxy)propyl)-1-(pyridin-3-ylmethyl)-1H-indole-2-carboxamide]
101 to 299 | Cc1ccccc1-c1cccc2c(CCCOc3cc(C)c(Cl)c(C)c3)c(C(=O)NS(C)(=O)=O)[nH]c12 [Example 84, 3-(3-(4-chloro-3,5-dimethylphenoxy)propyl)-N-(methylsulfonyl)-7-(o-tolyl)-1H-indole-2-carboxamide]
301 to 500 | Cc1cc(OCCCc2c(C(=O)NS(=O)(=O)C3CCN(C(=O)c4cccn4Cc4ccccc4)CC3)[nH]c3cc(Cl)ccc23)cc(C)c1Cl [Example 215, N-((1-(1-benzyl-1H-pyrrole-2-carbonyl)piperidin-4-yl)sulfonyl)-6-chloro-3-(3-(4-chloro-3,5-dimethylphenoxy)propyl)-1H-indole-2-carboxamide]
101 to 299 | Cc1cc(OCCCc2c(C(=O)NS(=O)(=O)CCNC(=O)CC34CC5CC(CC(C5)C3)C4)[nH]c3ccccc23)cc(C)c1Cl [Example 179, N-((2-(2-((1s,3s)-adamantan-1-yl)acetamido)ethyl)sulfonyl)-3-(3-(4-chloro-3,5-dimethylphenoxy)propyl)-1H-indole-2-carboxamide]
1000 to 9990 | Cc1cc(OCCCc2c(C(=O)NS(=O)(=O)CCNC(=O)c3c(C)nn(C)c3C)[nH]c3ccccc23)cc(C)c1Cl [Example 183, 3-(3-(4-chloro-3,5-dimethylphenoxy)propyl)-N-((2-(1,3,5-trimethyl-1H-pyrazole-4-carboxamido)ethyl)sulfonyl)-1H-indole-2-carboxamide]
301 to 500 | Cc1cc(OCCCc2c(C(=O)NS(=O)(=O)c3ccc(Oc4ccccc4)cc3)[nH]c3ccccc23)cc(C)c1Cl [Example 132, 3-(3-(4-chloro-3,5-dimethylphenoxy)propyl)-N-((4-phenoxyphenyl)sulfonyl)-1H-indole-2-carboxamide]
1000 to 9990 | CS(=O)(=O)NC(=O)c1[nH]c2ccc(Cl)cc2c1CCCOc1cccc2ccccc12 [Example 111, 5-chloro-N-(methylsulfonyl)-3-(3-(naphthalen-1-yloxy)propyl)-1H-indole-2-carboxamide]
301 to 500 | COc1ccc(S(=O)(=O)NC(=O)c2[nH]c3ccccc3c2CCCOc2cc(C)c(Cl)c(C)c2)c(OC)c1 [Example 138, 3-(3-(4-chloro-3,5-dimethylphenoxy)propyl)-N-((2,4-dimethoxyphenyl)sulfonyl)-1H-indole-2-carboxamide]
1000 to 9990 | O=C(O)c1sc2ccccc2c1CCCc1cccc2ccccc12 [Example 63, 3-(3-(naphthalen-1-yl)propyl)benzo[b]thiophene-2-carboxylic acid]
101 to 299 | Cc1cc(OCCCc2c(C(=O)NS(=O)(=O)c3ccccc3)[nH]c3c(-c4ccsc4)cccc23)cc(C)c1Cl [Example 96, 3-(3-(4-chloro-3,5-dimethylphenoxy)propyl)-N-(phenylsulfonyl)-7-(thiophen-3-yl)-1H-indole-2-carboxamide]
301 to 500 | CS(=O)(=O)NC(=O)c1[nH]c2cc(Cl)ccc2c1CCCOc1ccc(Cl)c2ccccc12 [Example 76, 6-chloro-3-(3-((4-chloronaphthalen-1-yl)oxy)propyl)-N-(methylsulfonyl)-1H-indole-2-carboxamide]
501 to 999 | CC(=O)NCCS(=O)(=O)NC(=O)c1[nH]c2ccccc2c1CCCOc1cc(C)c(Cl)c(C)c1 [Example 198, N-((2-acetamidoethyl)sulfonyl)-3-(3-(4-chloro-3,5-dimethylphenoxy)propyl)-1H-indole-2-carboxamide]
101 to 299 | COCc1nn(C)c(C)c1-c1cccc2c(CCCOc3cc(C)c(Cl)c(C)c3)c(C(=O)NS(=O)(=O)c3ccccc3)n(C)c12 [Example 129, 3-(3-(4-chloro-3,5-dimethylphenoxy)propyl)-7-(3-(methoxymethyl)-1,5-dimethyl-1H-pyrazol-4-yl)-1-methyl-N-(phenylsulfonyl)-1H-indole-2-carboxamide]
1000 to 9990 | COc1cccc(OCCCc2c(C(=O)NS(C)(=O)=O)[nH]c3cc(Cl)ccc23)c1 [Example 108, 6-chloro-3-(3-(3-methoxyphenoxy)propyl)-N-(methylsulfonyl)-1H-indole-2-carboxamide]
1000 to 9990 | CS(=O)(=O)NC(=O)c1[nH]c2cc(Cl)ccc2c1CCCOc1ccccc1Br [Example 107, 3-(3-(2-bromophenoxy)propyl)-6-chloro-N-(methylsulfonyl)-1H-indole-2-carboxamide]
501 to 999 | CS(=O)(=O)NC(=O)c1[nH]c2cc(Cl)ccc2c1CCCOc1cccc2c1CCCC2 [Example 75, 6-chloro-N-(methylsulfonyl)-3-(3-((5,6,7,8-tetrahydronaphthalen-1-yl)oxy)propyl)-1H-indole-2-carboxamide]
301 to 500 | Cc1cc(OCCCc2c(C(=O)NS(=O)(=O)c3ccccc3)n(C)c3cc(Cl)ccc23)cc(C)c1Cl [Example 269, 6-chloro-3-(3-(4-chloro-3,5-dimethylphenoxy)propyl)-1-methyl-N-(phenylsulfonyl)-1H-indole-2-carboxamide]
501 to 999 | Cc1cc(OCCCc2c(C(=O)NS(=O)(=O)CCc3ccccc3)[nH]c3ccccc23)cc(C)c1Cl [Example 140, 3-(3-(4-chloro-3,5-dimethylphenoxy)propyl)-N-(phenethylsulfonyl)-1H-indole-2-carboxamide]
101 to 299 | Cc1cc(OCCCc2c(C(=O)NS(=O)(=O)CCNS(=O)(=O)C3CCCCC3)[nH]c3ccccc23)cc(C)c1Cl [Example 149, 3-(3-(4-chloro-3,5-dimethylphenoxy)propyl)-N-((2-(cyclohexanesulfonamido)ethyl)sulfonyl)-1H-indole-2-carboxamide]
101 to 299 | Cc1cc(OCCCc2c(C(=O)NS(=O)(=O)CCNC(=O)c3ccc4[nH]ccc4c3)[nH]c3ccccc23)cc(C)c1Cl [Example 178, N-((2-(1H-indole-5-carboxamido)ethyl)sulfonyl)-3-(3-(4-chloro-3,5-dimethylphenoxy)propyl)-1H-indole-2-carboxamide]
301 to 500 | Cc1cc(OCCCc2c(C(=O)NS(=O)(=O)CCNC(=O)c3cccc(Oc4ccccc4)c3)n(Cc3cccnc3)c3cc(Cl)ccc23)cc(C)c1Cl [Example 276, 6-chloro-3-(3-(4-chloro-3,5-dimethylphenoxy)propyl)-N-((2-(3-phenoxybenzamido)ethyl)sulfonyl)-1-(pyridin-3-ylmethyl)-1H-indole-2-carboxamide]
10000 to 50000 | CS(=O)(=O)NC(=O)c1[nH]c2ccccc2c1CCCOc1ccc(Br)cc1 [Example 36, 3-(3-(4-bromophenoxy)propyl)-N-(methylsulfonyl)-1H-indole-2-carboxamide]
